{"source": "patent US8470357B2", "about": "“Methods of treatment with Syk inhibitors” (Portola Pharmaceuticals, Inc., priority 2004, dated 2013)", "key": {"[1]": {"system": "platelet thrombus formation on type III collagen", "assay": "Platelet thrombus formation on type III collagen under shear", "format": "cell-based, human", "experimental": "Briefly, unanticoagulated human blood was exposed to type III collagen for 4 minutes at a rate of shear (e.g., about 850/sec.) equivalent to that encountered in coronary arteries."}, "[2]": {"system": "leukocyte adhesion to IL-1β-activated human umbilical endothelial cells", "assay": "Recruitment of leukocytes to activated endothelial cells under shear", "format": "cell-based", "details": "25 or 50 μM; citrated human blood, IL-1β-activated endothelial cells, shear 650/sec (FIG. 4)", "description": "Briefly, cultured monolayers of human umbilical endothelial cells were activated by exposure to IL-1β for 24 hrs. Human blood, anticoagulated with citrate, was exposed to the activated endothelial cells at a shear rate of 650/sec for the time indicated."}, "[3]": {"system": "leukocyte rolling on activated, collagen-adhering platelets", "assay": "Recruitment of leukocytes to adherent, activated platelets under shear", "format": "cell-based", "details": "increasing concentrations; citrated human blood with 2.5 μM Integrilin, type III collagen, 10 minutes, shear 650/sec (FIG. 3)", "experimental": "Briefly, human blood, anticoagulated with citrate in the presence of 2.5 μM Integrilin, was exposed for 10 minutes to type III collagen at a shear rate of 650/sec."}}}
{"smiles": "CC(=O)N(C)c1ccc(Nc2nc(NC3CCC3)c3[nH]cnc3n2)cc1.Cl", "note": "[NVP-QAB205]", "values": [{"measurement": "platelet adhesion", "setting": "[1]; at 5, 10, and 25 μM (see FIG. 2)", "result": "did not completely block platelet adhesion"}, {"measurement": "inhibition of thrombus formation", "setting": "[1]; increasing concentrations, unanticoagulated human blood, type III collagen, 4 minutes, shear about 850/sec (FIG. 2)", "result": "caused inhibition of thrombus formation"}, {"measurement": "inhibition of leukocyte adhesion to activated endothelial cells", "setting": "[2]", "result": "marked inhibition of leukocyte adhesion"}, {"measurement": "inhibition of leukocyte rolling", "setting": "[3]", "result": "caused inhibition of leukocyte rolling"}]}
